Experimental data published in PMC13028611, “Hepatotoxicity Assessment of Anshenbunao Syrup by Multi-Component Quantification In Vivo/In Vitro and Cell Biological Evaluations” (Pharmaceuticals, 2026).

Format: in vivo, Sprague–Dawley (SD) rats
Details: rat plasma, single oral gavage of 10 mL/kg ABS, n = 6
Method: All rats underwent an acclimation period of a week and overnight fasting with free access to water only. Rats were randomly selected and administered the ABS (n = 6, biological replicates). Each rat was administered with a single ABS oral gavage dose of 10 mL/kg. Blood samples (approximately 150 μL) were collected from the orbital venous plexus using heparinized tubes at predefined time points (0, 0.033, 0.083, 0.167, 0.25, 0.5, 0.75, 1, 2, 4, 6, 8, 10, 12, 24, 36, 48, and 60 h) post-administration. The technical personnel were proficiently trained in performing orbital venous plexus blood draws, employing a technique designed to minimize discomfort to the animals. All rats received an intragastric administration of 1 mL saline at 6 h post-dosing, after which they were provided with unrestricted access to food and water for the remainder of the experimental period. […]
Chromatographic separation was performed on a Thermo BDS Hypersil C18 column (100 × 4.6 mm, 3 µm) with linear gradient elution at a flow rate of 0.7 mL/min using methanol and water both containing 0.1% acetic acid as the mobile phases A and B, respectively. […] The quantification analysis was conducted under multiple reaction monitoring mode with argon collision gas pressure set at 0.2 Pa for collision-induced dissociation. […]

SMILES | t1/2 [h] | Tmax [h]
Cc1cc(O)c2c(c1)C(=O)c1cc(O)cc(O)c1C2=O [EM, emodin] | 4.63 ± 1.53 | –
O=C1C[C@@H](c2ccc(O[C@@H]3O[C@H](CO)[C@@H](O)[C@H](O)[C@H]3O)cc2)Oc2cc(O)ccc21 [LI, liquiritin] | – | 0.20 ± 0.03
